The source of these data is US7786097B2, “Tricyclic compounds, compositions and methods” (Pfizer Inc., priority 2007, dated 2010).

Molecules are shown by their SMILES. Counter-ions that a name gives are not always drawn.

Series [1] has as its target T1, full-length glucocorticoid (GR) protein (Homo sapiens, UniProt P04150).
T1 construct: purchased Invitrogen
T1 sequence (P04150 1-777): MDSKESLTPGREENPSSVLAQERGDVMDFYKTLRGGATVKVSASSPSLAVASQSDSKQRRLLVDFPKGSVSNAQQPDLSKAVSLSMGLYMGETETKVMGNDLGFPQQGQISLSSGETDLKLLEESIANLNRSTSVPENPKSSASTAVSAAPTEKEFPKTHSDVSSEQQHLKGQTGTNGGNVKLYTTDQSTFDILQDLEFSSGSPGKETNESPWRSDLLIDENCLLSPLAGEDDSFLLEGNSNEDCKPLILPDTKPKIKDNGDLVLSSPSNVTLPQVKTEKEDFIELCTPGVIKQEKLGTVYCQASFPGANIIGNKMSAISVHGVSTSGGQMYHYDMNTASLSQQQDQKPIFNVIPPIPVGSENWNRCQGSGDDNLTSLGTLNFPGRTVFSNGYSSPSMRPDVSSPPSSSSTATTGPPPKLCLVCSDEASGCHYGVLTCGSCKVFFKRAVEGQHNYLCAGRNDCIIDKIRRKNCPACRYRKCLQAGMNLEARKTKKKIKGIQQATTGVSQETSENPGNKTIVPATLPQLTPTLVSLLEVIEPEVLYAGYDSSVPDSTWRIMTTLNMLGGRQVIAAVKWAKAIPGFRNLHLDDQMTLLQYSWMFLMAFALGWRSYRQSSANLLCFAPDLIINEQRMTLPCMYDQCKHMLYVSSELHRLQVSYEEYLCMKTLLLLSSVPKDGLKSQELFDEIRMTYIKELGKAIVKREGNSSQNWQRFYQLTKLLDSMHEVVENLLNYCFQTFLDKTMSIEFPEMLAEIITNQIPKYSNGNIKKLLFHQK
Nature of the series: Glucocorticoid receptor fluorescence polarization ligand binding (GRFP) assay. The source says: GRFP: Glucocorticoid Receptor Binding
The glucocorticoid receptor fluorescence polarization ligand binding (GRFP) assay is used to evaluate direct binding of testing compounds to full-length glucocorticoid (GR) protein. Reagents for this assay are purchased from Invitrogen in a test kit. A fluorescent labeled GR ligand is used as a fluorescent tracer and test compounds compete with the fluorescent tracer for GR binding. The change in polarization value in the presence of test compounds is due to binding of test compounds to (GR) and is used to determine IC50 and relative binding affinity of test compounds for GR.
For orientation: Fluorescence polarisation rises when a labelled molecule tumbles more slowly, as on binding a larger partner.

For series [2], the system named is Mouse Collagen-Induced Arthritis (mCIA). Nature of the series: Therapeutic mouse collagen-induced arthritis (mCIA) model. It is filed as in vivo, Male DBA/J mice. The conditions noted are these: Mus musculus, mice, dosing day 34 through day 49; for ED80: read-out: Therapeutic mCIA (ED80 dose). The source says:
Mouse Collagen-induced arthritis is a commonly used chronic, preclinical model of rheumatoid arthritis in which joint swelling and bone destruction occur following immunization with type II collagen. Reduction of disease incidence and severity has been shown previously to be predictive of disease-modification and signs and symptoms mitigation, respectively, in a clinical setting.
In the therapeutic mCIA model, induction of disease incidence and severity was synchronized via LPS stimulation. Male DBA/J mice were immunized with 100 ug of bovine type II collagen (bCII) on day 0. All mice received an intraperitoneal injection of 20 μg of LPS on day 28 and disease was allowed to develop through day 34. At day 34, all mice had disease (incidence=100%) with an average severity score of seven. Dosing of compounds was initiated in the therapeutic mode on day 34 and continued through day 49. Different treatments were compared by measuring the decrease in incidence (i.e., resolution of disease) and the decrease in severity of paw swelling over time.

The next series relates to Serum osteocalcin. Nature of the series: Serum osteocalcin suppression, 28-day repeat dose mouse model. Format: in vivo, Swiss Webster female mice. The conditions noted are these: mice, oral gavage 28 days, serum osteocalcin. The procedure: (§1) The compounds were weighed and suspended in a vehicle of 0.5% methylcellulose/0.025% tween 20 (Sigma-Aldrich, St. Louis, Mo.). Compound suspensions were homogenized using a Polytron PT-3100 tissue homogenizer to create a very fine suspension and were then sonicated for 10 minutes using a water bath sonicator. Aliquots of each suspension were made for daily dosing at 0.2 ml/dose. Swiss Webster female mice, 10-12 weeks old, 28-29 grams, (Taconic, Germantown, N.Y.) were used in accordance with the guidelines of the Institutional Animal Care and Use Committee and in accordance with NIH guidelines on laboratory animal welfare. Mice were acclimated in the Pfizer animal facility for three to seven days prior to being utilized in a study. […] Each treatment group contained 5-10 mice. To establish a dosing regimen for the studies, a pilot pharmacodynamic time course experiment was conducted to quantify TNFα repression after a single ED80 dose.
(§2) Body weights were measured on the first and last day of each experiment. Blood samples were obtained after three weeks of dosing for a steady-state pharmacokinetic (PK) analysis. To assess compound effects on LPS-induced TNFα, all mice received an intraperitoneal injection of LPS (Salmonella typhosa, L-7895; Sigma-Aldrich, St. Louis) 2.5 hr after the last dose on day 28. Mice were sacrificed 90 minutes after LPS administration. Serum samples were quantified for osteocalcin and TNFα using the multiplex assays (Linco Research, Inc, St. Charles, Mo.; Luminex 100, Austin, Tex.). Samples were diluted 1:20 and the assay was run according to manufacturer's instructions. The osteocalcin standard was purchased separately (Biomedical Technologies Inc., Stoughton, Mass.). Mice were fasted for 4 hours before serum was collected for TNFα, and osteocalcin levels. For each experiment, outliers were detected by calculating the number of standard deviations from the mean of the group. If the value being examined was more than 2.5 standard deviations from the mean, it was excluded from the rest of the calculations.
(§3) The individual mouse percent inhibition values were fit to a four-parameter logistic model using the dose mean for each group.
(§4) ED50 and ED80 values were obtained for the various endpoints using a four-parameter logistic fit. For compounds which were tested multiple times, ED50 and ED80 values were obtained using four-parameter logistic fits of the combined data from multiple experiments.

Another series concerns LPS-induced serum TNFα. Put plainly: LPS-induced serum TNFα suppression, 28-day repeat dose mouse model. It is filed as in vivo, Swiss Webster female mice. The conditions noted are these: Mus musculus, 672 h, mice, oral gavage 28 days. The procedure: as §1, §2, §3, §4

As a reminder, the IC50 is the point on the concentration scale where inhibition reaches its midpoint. A word on the ED50: it is the midpoint of the dose-response relation.

As for `Cc1ncccc1CNC(=O)c1ccc2c(c1)CC[C@@H]1C[C@@](O)(CCC(F)(F)F)CC[C@@]21Cc1ccccc1` [Comparator A, (4βS,7S,8αR)-4β-benzyl-7-hydroxy-N-((2-methylpyridin-3-yl)methyl)-7-(3,3,3-trifluoropropyl)-4β,5,6,7,8,8α,9,10-octahydrophenanthrene-2-carboxamide], the IC50 in series [1] turned out to be 7.1 nM.
In turn, `Cc1cnc(NC(=O)c2ccc3c(c2)CC[C@@H]2C[C@@](O)(C(F)(F)F)CC[C@@]32Cc2ccccc2)c(C)n1` [Comparator B, (4βS,7R,8αR)-4β-benzyl-N-(3,5-dimethylpyrazin-2-yl)-7-hydroxy-7-(trifluoromethyl)-4β,5,6,7,8,8α,9,10-octahydrophenanthrene-2-carboxamide] returned an IC50 in series [1] of 0.35 nM. Moreover, the ED80 is over 10 mg/kg in series [2] and 2.91 mg/kg in the series with LPS-induced serum TNFα. The “Osteocalcin Suppression (ED80 dose)” value with Serum osteocalcin is over 10 mg/kg.
Consider `Cc1ncccc1NC(=O)c1ccc2c(c1)CC[C@@H]1C[C@@](O)(CCC(F)(F)F)CC[C@@]21Cc1ccccc1` [Comparator C, (4βS,7S,8αR)-4β-benzyl-7-hydroxy-N-(2-methylpyridin-3-yl)-7-(3,3,3-trifluoropropyl)-4β,5,6,7,8,8α,9,10-octahydrophenanthrene-2-carboxamide], for which the IC50 in series [1] was 1.22 nM. Moreover, the ED80 in series [2] was over 10 mg/kg; with LPS-induced serum TNFα, 1.33 mg/kg.
The compound `Cc1ccncc1NC(=O)c1ccc2c(c1)CC[C@@H]1C[C@@](O)(C(F)(F)F)CC[C@@]21Cc1ccccc1` [Comparator D, (4βS,7R,8αR)-4β-benzyl-7-hydroxy-N-(4-methylpyridin-3-yl)-7-(trifluoromethyl)-4β,5,5,7,8,8α,9,10-octahydrophenanthrene-2-carboxamide] returned an IC50 in series [1] of 2.06 nM. Besides, the ED80 with LPS-induced serum TNFα is over 20 mg/kg.
Consider `Cc1ncccc1NC(=O)c1ccc2c(c1)C(=O)C[C@@H]1C[C@@](O)(C(F)(F)F)CC[C@@]21Cc1ccccc1` [Comparator E], for which the IC50 in series [1] turned out to be 1.18 nM. Further, the ED80 is 2.6 mg/kg in series [2] and 1.18 mg/kg in the series with LPS-induced serum TNFα. Besides, the “Osteocalcin Suppression (ED80 dose)” value in the series on Serum osteocalcin is 1.71 mg/kg.
Compound `Cc1ncccc1NC(=O)c1ccc2c(c1)[C@H](O)C[C@@H]1C[C@@](O)(C(F)(F)F)CC[C@@]21Cc1ccccc1` [Comparator F, (4βS,7R,8αR,10R)-4β-benzyl-7,10-dihydroxy-N-(2-methylpyridin-3-yl)-7-(trifluoromethyl)-4β,5,6,7,8,8α,9,10-octahydrophenanthrene-2-carboxamide] yielded an IC50 in series [1] of 1.9 nM. Besides, the ED80 in series [2] was over 10 mg/kg; in the series on LPS-induced serum TNFα, 5.67 mg/kg. In addition, the “Osteocalcin Suppression (ED80 dose)” value in the series with Serum osteocalcin is on record as over 10 mg/kg.
Consider `Cc1c(NC(=O)c2ccc3c(c2)CC[C@@H]2C[C@@](O)(C(F)(F)F)CC[C@@]32Cc2ccccc2)ccc[n+]1[O-]` [Comparator G], for which the ED50 in series [2] (read-out: Therapeutic mCIA (ED50 dose)) turned out to be 0.6 mg/kg. Besides, the ED80 was 3 mg/kg in series [2] and 3.33 mg/kg with LPS-induced serum TNFα. In the series on Serum osteocalcin, the “Osteocalcin Suppression (ED80 dose)” value is on record as 7.27 mg/kg.
In series [1], `Cc1ncccc1NC(=O)c1ccc2c(c1)CC[C@@H]1C[C@@](O)(C(F)F)CC[C@@]21Cc1ccccc1` [Comparator H, (4βS,7R,8αR)-4-benzyl-7-(difluoromethyl)-7-hydroxy-N-(2-methylpyridin-3-yl)-4β,5,6,7,8,8α,9,10 octahydrophenanthrene-2-carboxamide] yielded an IC50 of 8.03 nM. In the series on LPS-induced serum TNFα, this compound came in with an ED80 of 0.72 mg/kg.
As for `Cc1ncccc1NC(=O)c1ccc2c(c1)C=C[C@@H]1C[C@@](O)(C(F)(F)F)CC[C@@]21Cc1ccccc1` [Comparator I, (4βS,7R,8αR)-4β-benzyl-7-hydroxy-N-(2-methylpyridin-3-yl)-7-(trifluoromethyl)-4β,5,6,7,8,8α-hexahydrophenanthrene-2-carboxamide], in series [1], the IC50 amounted to 9.12 nM. The ED80 in series [2] was over 20 mg/kg; with LPS-induced serum TNFα, 5.45 mg/kg. Also, in the series on Serum osteocalcin, the “Osteocalcin Suppression (ED80 dose)” value is on record as over 20 mg/kg.
On to `Cc1ncc(NC(=O)c2ccc3c(c2)CC[C@@H]2C[C@@](O)(CCC(F)(F)F)CC[C@@]32Cc2ccccc2)c(C)n1` [Comparator J], for which, in series [1], the IC50 is 4.58 nM. The ED80 was over 20 mg/kg in series [2] and 0.79 mg/kg in the series with LPS-induced serum TNFα.
`Cc1ncccc1NC(=O)c1ccc2c(c1)CC[C@@H]1C[C@@](OC(=O)OCC(C)C)(C(F)(F)F)CC[C@@]21Cc1ccccc1` [Comparator K, (2R,4αS,10αR)-4-benzyl-7-((2-methylpyridin-3-yl)carbamoyl)-2-(trifluoromethyl)-1,2,3,4,4α,9,10,10α-octahydrophenanthren-2-yl isobutyl carbonate]: the IC50 in series [1] came to 895 nM. That is a sub-micromolar value.
In series [1], `Cc1ncccc1NC(=O)c1ccc2c(c1)CC[C@@H]1C[C@@](O)(C(F)(F)F)CC[C@@]21Cc1ccccc1` [Example 1 HCL salt] displayed an IC50 of 1.31 nM. Compared with the last compound, the IC50 is about 680-fold lower.
